What all share (type): cell-based
For assay [1], the target named is androgen receptor mutant E709Y (Homo sapiens (Human), UniProt P10275, E710Y). Description: Transactivation assay for the androgen receptor mutant E709Y (transfected PC-3 cells). To be noted: in the presence of 1×10^−10 M R1881, 24 hours. As to the method:
PC-3 cells (Kaighn et al., Invest. Urol. 17: 16-23, 1979) were plated out at a density of 10000 cells per well of a 96-well cell culture plate in RMPI 1640 medium (F1235, Biochrom AG Berlin, Germany) that contained activated charcoal-treated calf serum (FCS Serum Gold, PAA Laboratories) at a concentration of 5% (v/v). On the next day the cells were transiently transfected with the pSG5-vector (#216201 Stratagene), which contained the sequence of the androgen receptor mutant E709Y (Georget et al., Mol. Endocrinol. 20(4): 724-734, 2006), and with the MMTV-luciferase plasmid (see above, transactivation assay for the androgen receptor mutant W741C). The cells were treated with the test substances in concentrations from 1×10^−8 to 1×10^−10 M in the presence of 1×10^−10 M R1881 and were incubated overnight at 37° C. and 5% CO2. After 24 hours, 100 μl of Steady Glo Lysis and Detection reagent (E2550, Promega) was added per well and the luminescence was read in a Victor3 Luminometer (PerkinElmer) for 1 second per well. The luminescence values obtained were normalized, wherein 100% corresponded to the effect of the unstimulated control (without R1881), and 0% corresponded to the effect of the stimulated control (R1881 plus DMSO instead of test substance). The IC50 value was determined by regression analysis based on a four-parameter equation (minimum, maximum, IC50, Hill coefficient; Y=Max+(Min−Max)/(1+(X/IC50)^Hill)).

Assay [2] deals with human androgen receptor (full length, wild-type form) (Homo sapiens (Human), UniProt P10275). Description: Transactivation assay for the wild-type androgen receptor (PC-3 cells, MMTV-luciferase reporter). The settings on record: in the presence of R1881, 16 hours. From the text: For determining the androgen receptor-dependent transcription, a cellular assay system was used, consisting of PC-3 cells (Kaighn et al., Invest. Urol. 17: 16-23, 1979), which express the human androgen receptor stably and recombinantly (full length, wild-type form, see Swiss-Prot Acc. No. P10275, Entry Version 159, Sequence Version 2). In addition, these PC3 cells contain a stably integrated reporter gene plasmid, which is based on the commercially available plasmid pGL4.14 (#E6691, Promega Corporation, Madison, Wis., USA) and contains the luciferase gene from the American firefly (Photinus pyralis) under the control of the MMTV promoter (Cato et al., EMBO J. 6: 363-368, 1987). These cells were propagated in routine cell culture at 37° C. and 5% CO2 in a medium containing 90% RPMI 1640 (Invitrogen GmbH, Darmstadt, Germany), 100 U penicillin, 100 μg/ml streptomycin (Invitrogen), 4 mM L-glutamine (Invitrogen), 10% fetal calf serum (FCS Serum Gold, PAA Laboratories GmbH, Cölbe, Germany), 600 μg/ml Geneticin (G418-sulphate, Invitrogen) and 10 μg/ml puromycin (Sigma Aldrich GmbH, Germany).
For carrying out the transactivation assays, approx. 1000 cells per well were plated out in a 384-well cell culture plate in a medium that contained activated charcoal-treated calf serum (FCS Serum Gold, PAA Laboratories) at a concentration of 5% (v/v). The test substances were added in a concentration series from 5.12×10^−12 to 1×10^−5 M in the presence of […] R1881 (methyltrienolone). The test plates were incubated overnight at 37° C. and 5% CO2. After 16 hours, 15 μl of Steady Glo Lysis and Detection reagent (E2550, Promega Corporation, Madison, Wis., USA) was added per well and the luminescence was read in a Topcount Luminometer (PerkinElmer, Waltham, Mass., USA) for 4 seconds per well. The luminescence values obtained were normalized, wherein 100% corresponded to the effect of the unstimulated control (without R1881), and 0% corresponded to the effect of the stimulated control (R1881 plus DMSO instead of test substance). The IC50 value was determined by regression analysis based on a four-parameter equation (minimum, maximum, IC50, Hill coefficient; Y=Max+(Min−Max)/(1+(X/IC50)^Hill)).
On the technique in general: A reporter such as luciferase makes a cellular process visible.

Assay [3] addresses androgen receptor mutant W741C (Homo sapiens (Human), UniProt P10275, W742C). Put plainly: Transactivation assay for the androgen receptor mutant W741C (transfected PC-3 cells). The settings on record: in the presence of 1×10^−10 M R1881, 24 hours. Here is the method:
PC-3 cells (Kaighn et al., Invest. Urol. 17: 16-23, 1979) were plated out at a density of 10000 cells per well of a 96-well cell culture plate in RMPI 1640 medium (F1235, Biochrom AG, Berlin, Germany), which contained activated charcoal-treated calf serum (FCS Serum Gold, PAA Laboratories) at a concentration of 5% (v/v). On the next day the cells were transiently transfected with the pSG5-vector (#216201 Stratagene), which contained the sequence of the androgen receptor mutant W741C (Haapala et al., Lab Invest. 81(12): 1647-51, 2001), and with a reporter plasmid based on pGL4.14 (#E6691, Promega) with the luciferase-gene (from Photinus pyralis) under the control of the MMTV promoter (Cato et al., EMBO J. 6: 363-8, 1987). The cells were treated with the test substances in concentrations from 1×10^−8 to 1×10^−10 M in the presence of 1×10^−10 M R1881 and were incubated overnight at 37° C. and 5% CO2. After 24 hours, 100 μl of Steady Glo Lysis and Detection reagent (E2550, Promega) was added per well and the luminescence was read in a Victor3 Luminometer (PerkinElmer) for 1 second per well. The luminescence values obtained were normalized, wherein 100% corresponded to the effect of the unstimulated control (without R1881), and 0% corresponded to the effect of the stimulated control (R1881 plus DMSO instead of test substance). The IC50 value was determined by regression analysis based on a four-parameter equation (minimum, maximum, IC50, Hill coefficient; Y=Max+(Min−Max)/(1+(X/IC50)^Hill)).

The subject of a further assay is LAPC-4 cells. Description: Proliferation assay with LAPC-4 cells. The settings on record: Homo sapiens, LAPC4, 168 h; in the presence of 1×10^−9 M R1881, seven days, AlamarBlue; read-out: IC50 LAPC-4 cell proliferation. Here is the method: LAPC-4 cells (Klein et al., Nat Med. 3(4): 402-8, 1997) were plated out at a density of 4000 cells per well of a 96-well cell culture plate in RMPI 1640 medium (F1275, Biochrom AG) that contained activated charcoal-treated calf serum (FCS Serum Gold, PAA Laboratories) at a concentration of 10% (v/v). On the next day the cells were treated with the test substances in concentrations from 1×10^−8 to 1×10^−10 M in the presence of 1×10^−9 M R1881. Cell proliferation was determined seven days later after incubation for 2 hours with AlamarBlue (DAL1100, Invitrogen) (Nakayama et al., J Immunol Methods, 204(2): 205-8, 1997). The fluorescence values obtained were normalized, wherein 100% corresponded to the effect of the unstimulated control (without R1881), and 0% corresponded to the effect of the stimulated control (R1881 plus DMSO instead of test substance). The IC50 value was determined by regression analysis based on a four-parameter equation (minimum, maximum, IC50, Hill coefficient; Y=Max+(Min−Max)/(1+(X/IC50)^Hill)).
(The colour change of resazurin is a common sign of viable cells or microbes.)

Another assay concerns LNCaP cells. Put plainly: Proliferation assay with LNCaP cells. To be noted: Homo sapiens, 168 h, in the presence of 1×10^−10 M R1881, seven days, AlamarBlue, read-out: IC50 LNCaP cell proliferation. Here is the method: LNCaP cells (Horoszewicz et al., in “Models for Prostate Cancer” (ed. G. P. Murphy), Alan R. Liss, New York 1981, p. 115-132; Horoszewicz et al., Cancer Res. 43: 1809-1818, 1983) were plated out at a density of 2000 cells per well of a 96-well cell culture plate in RMPI 1640 medium (F1275, Biochrom AG), which contained activated charcoal-treated calf serum (FCS Serum Gold, PAA Laboratories) at a concentration of 5% (v/v). Three days later the cells were treated with the test substances in concentrations from 1×10^−8 to 1×10^−10 M in the presence of 1×10^−10 M R1881. Cell proliferation was determined seven days later after incubation for 2 hours with AlamarBlue (DAL1100, Invitrogen) (Nakayama et al., J Immunol Methods, 204(2): 205-8, 1997). The fluorescence values obtained were normalized, wherein 100% corresponded to the effect of the unstimulated control (without R1881), and 0% corresponded to the effect of the stimulated control (R1881 plus DMSO instead of test substance). The IC50 value was determined by regression analysis based on a four-parameter equation (minimum, maximum, IC50, Hill coefficient; Y=Max+(Min−Max)/(1+(X/IC50)^Hill)).

Chain of androgen receptor mutant W741C (P10275 whole entry W742C): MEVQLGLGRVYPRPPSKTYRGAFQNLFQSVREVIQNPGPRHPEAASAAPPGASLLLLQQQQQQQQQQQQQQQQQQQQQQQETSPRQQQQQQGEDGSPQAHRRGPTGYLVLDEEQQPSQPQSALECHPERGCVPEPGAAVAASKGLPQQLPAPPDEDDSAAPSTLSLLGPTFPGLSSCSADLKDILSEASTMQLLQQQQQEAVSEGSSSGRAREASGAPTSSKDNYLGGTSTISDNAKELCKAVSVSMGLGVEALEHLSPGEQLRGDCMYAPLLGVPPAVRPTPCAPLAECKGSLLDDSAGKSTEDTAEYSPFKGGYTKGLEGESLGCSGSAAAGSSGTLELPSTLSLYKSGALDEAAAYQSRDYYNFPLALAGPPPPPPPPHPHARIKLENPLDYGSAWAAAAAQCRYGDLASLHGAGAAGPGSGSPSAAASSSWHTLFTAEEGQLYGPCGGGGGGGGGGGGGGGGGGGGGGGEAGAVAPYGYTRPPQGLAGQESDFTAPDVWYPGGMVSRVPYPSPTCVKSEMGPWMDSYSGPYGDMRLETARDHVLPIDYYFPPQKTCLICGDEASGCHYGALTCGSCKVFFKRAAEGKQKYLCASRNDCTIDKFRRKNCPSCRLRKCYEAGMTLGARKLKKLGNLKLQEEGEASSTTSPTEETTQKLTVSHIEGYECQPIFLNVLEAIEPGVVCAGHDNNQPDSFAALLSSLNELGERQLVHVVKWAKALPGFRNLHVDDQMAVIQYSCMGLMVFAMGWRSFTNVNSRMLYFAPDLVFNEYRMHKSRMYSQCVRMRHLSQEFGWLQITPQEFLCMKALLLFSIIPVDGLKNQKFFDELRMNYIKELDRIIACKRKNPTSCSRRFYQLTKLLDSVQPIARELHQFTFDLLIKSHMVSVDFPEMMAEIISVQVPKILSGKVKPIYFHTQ
Chain of human androgen receptor (full length, wild-type form) (P10275 whole entry): as the sequence (P10275 whole entry W742C) above, with C742W counted along it
Chain of androgen receptor mutant E709Y (P10275 whole entry E710Y): as the sequence (P10275 whole entry W742C) above, with E710Y, C742W counted along it

Regarding `O=C(NC[C@H]1CC[C@H](Oc2ccnc3ccccc23)CC1)c1ccc(F)c(F)c1` [Example 9, N-{[trans-4-(4-quinolyloxy)cyclohexyl]methyl}-3,4-difluorobenzamide], the IC50 in assay [1] is 56 nM; in assay [2], 105 nM; in assay [3] it was 72 nM; with LAPC-4 cells, 45 nM.
On to `O=C(NC[C@H]1CC[C@H](Oc2ccnc3ccccc23)CC1)c1cccc(F)c1` [Example 10, N-{[trans-4-(4-quinolyloxy)cyclohexyl]methyl}-3-fluorobenzamide], for which the IC50 in assay [1] is 175 nM; in assay [2], 194 nM; in assay [3], 220 nM; in the assay with LAPC-4 cells, 130 nM.
Regarding `Cc1cc(C(=O)NC[C@H]2CC[C@H](Oc3ccnc4ccccc34)CC2)no1` [Example 11, N-{[trans-4-(4-quinolyloxy)cyclohexyl]methyl}-5-methylisoxazole-3-carboxamide], the IC50 in assay [2] came out at 210 nM; in the assay on LNCaP cells, 260 nM; with LAPC-4 cells, 118 nM.
Taken in the same sequence, the figures for `O=C(N[C@H]1CC[C@H](Oc2ccnc3ccccc23)CC1)c1cccc(F)c1` [Example 19, N-{trans-4-(4-quinolyloxy)cyclohexyl}-3-fluorobenzamide] were 32 nM, 110 nM and 48 nM.
For `N#Cc1cccc2c(O[C@H]3CC[C@H](NC(=O)c4ccc(F)c(F)c4)CC3)ccnc12` [Example 24, N-{trans-4-[(8-cyanoquinolin-4-yl)oxy]cyclohexyl}-3,4-difluorobenzamide], the values for the IC50 in assay [1], in assay [2] and in assay [3] were 14 nM, 92 nM and 72 nM, respectively.
